Results taken from US20030032580A1, “Use of agonists or antagonists of the 5-HT7 receptor to treat disorders of the bladder” (Synaptic Pharmaceutical Corporation, priority 1999, published 2003).
“And” between values parts separate entries of the source, which are not always exact repeats. Equal values may be shown once.

Columns and labels:
[1] = molecular target: T1, 5-HT7 receptor (first phase of the concentration-effect curve to 5-CT in the rat bladder) (Rattus norvegicus, UniProt P32305); assay: Electrically stimulated rat bladder strips: first (high potency) phase of the concentration-effect curve to 5-CT; format: cell-based; settings: for effect on high potency responses to 5-CT: pindolol 1 μM, tropisetron 10 μM, ketanserin 0.1 μM
T1 construct: from tissue; host or cells: rat urinary bladder detrusor strips

5-HT1B = 5-HT1B (Rattus norvegicus, UniProt P28564); settings: Hoyer, 1989; Hoyer et al., 1994; cited from earlier work
5-HT1D = settings: Hoyer, 1989; Hoyer et al., 1994; cited from earlier work
5-HT2C = molecular target: T2, 5-HT2C (Homo sapiens, UniProt P28335); settings: Hoyer, 1989; Hoyer et al., 1994; cited from earlier work
T2 sequence (P28335 33-458): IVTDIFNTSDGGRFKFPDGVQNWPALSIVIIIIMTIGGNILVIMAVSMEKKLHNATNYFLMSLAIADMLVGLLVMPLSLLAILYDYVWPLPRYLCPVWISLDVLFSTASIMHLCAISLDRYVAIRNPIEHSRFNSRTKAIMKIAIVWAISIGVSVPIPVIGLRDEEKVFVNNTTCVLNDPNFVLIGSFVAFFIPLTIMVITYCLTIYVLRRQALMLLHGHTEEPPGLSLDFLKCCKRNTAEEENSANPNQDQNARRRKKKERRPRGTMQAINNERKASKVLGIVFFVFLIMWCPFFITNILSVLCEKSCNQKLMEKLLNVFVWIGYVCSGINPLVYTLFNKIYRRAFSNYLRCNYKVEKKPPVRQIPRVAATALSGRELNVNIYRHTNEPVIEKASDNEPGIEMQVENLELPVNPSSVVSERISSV

5-HT5A = settings: Hoyer et al., 1994; cited from earlier work
[2] = molecular target: T3, 5-HT2B receptor (second phase of the concentration-effect curve to 5-CT in the rat bladder) (Rattus norvegicus, UniProt P30994); assay: Electrically stimulated rat bladder strips: second (low potency) phase of the concentration-effect curve to 5-CT; format: cell-based; settings: for effect on low potency responses to 5-CT: pindolol 1 μM, tropisetron 10 μM, ketanserin 0.1 μM
T3 construct: from tissue; host or cells: rat urinary bladder detrusor strips

[3] = molecular target: cloned rat 5-HT2B receptor (Rattus norvegicus, UniProt P30994); settings: cited from earlier work
[4] = molecular target: cloned human 5-HT7 receptor (Homo sapiens, UniProt P34969); settings: cited from earlier work; for pK1: cloned human 5-HT7 receptor, references 1 and 4
5-HT1A = molecular target: T4, 5-HT1A (Homo sapiens, UniProt P08908); settings: Hoyer, 1989; cited from earlier work
T4 sequence (P08908 1-422): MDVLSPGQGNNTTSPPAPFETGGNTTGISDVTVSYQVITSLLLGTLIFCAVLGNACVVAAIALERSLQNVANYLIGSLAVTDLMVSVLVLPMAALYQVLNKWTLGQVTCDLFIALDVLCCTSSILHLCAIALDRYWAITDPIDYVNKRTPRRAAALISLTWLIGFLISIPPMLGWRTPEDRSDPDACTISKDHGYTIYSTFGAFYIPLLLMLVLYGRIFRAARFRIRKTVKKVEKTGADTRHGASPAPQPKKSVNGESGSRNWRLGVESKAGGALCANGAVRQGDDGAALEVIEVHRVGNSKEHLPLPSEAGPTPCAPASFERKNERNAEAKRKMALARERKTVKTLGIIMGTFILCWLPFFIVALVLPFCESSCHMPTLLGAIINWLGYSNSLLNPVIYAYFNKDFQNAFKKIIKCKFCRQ

5-HT1E = 5-HT1E (Homo sapiens, UniProt P28566); settings: Adham et al., 1993; cited from earlier work
5-HT2A = 5-HT2A (Homo sapiens, UniProt P28223); settings: Hoyer, 1989; Hoyer et al., 1994; cited from earlier work
[5] = test system: rat urinary bladder strips; assay: Isolated rat urinary bladder strips: agonist-evoked increase of electrically evoked, nerve-mediated contractions; format: cell-based; settings: for effect on the magnitude of electrically evoked contractions: agonist alone, electrically stimulated rat bladder strips; for ability to modify the effects of 5-HT: 10 μM
Excerpt: 5-HT receptors in the rat urinary bladder which, when activated by serotonin agonists, cause increases in the magnitude of nerve-mediated contractions, were identified and characterized pharmacologically using isolated strips of rat bladder.
Urinary bladders were isolated from female CD rats (Charles Rivers, 250-300 g). The bladder base (lower third) was removed and the detrusor region was opened into a flat sheet by cutting from the basal opening to the apex. This was cut into quadrants, each of which was attached on its lateral edges by two tissue clips and suspended in a 5 ml tissue bath containing Krebs' solution (pH 7.4 37° C.) of the following composition (mM): NaCl (118), KCl (4.9), NaHCO3 (25), MgCl2 (1.2), NaHPO4 (1.0), CaCl2 (2.5), glucose (11) and aerated continuously with 95% O2/5% CO2. Except in initial experiments, prazosin (0.1 μM), idazoxan (0.3 μM), and indomethacin (10 μM) were included routinely in the buffer to block α1- and α2-adrenoceptors and to prevent the formation of prostaglandins, respectively. After allowing 30 min for equilibration, bladder strips were placed under 1.0 g resting tension, readjusted 6 times over the next 30 min. For most experiments contractile responses were evoked by transmural electrical impulses delivered by Grass S-88 (Grass Instruments, City, Mass.) stimulators (single pulses, 0.1 Hz, 1 ms pulse width, 90 V) through a pair of stainless steel electrodes. Contractions were measured using isometric force transducers (Radnotti Instruments, Monrovia, Calif.) and recorded using MacLab software (AD Instruments, Milford, Mass.).
Bladder strips, in Krebs' solution containing antagonist or vehicle, were stimulated at supramaximal voltage until contractions of consistent magnitude were obtained (ca. 30 min). During this period the Krebs' solution was exchanged at 15 min intervals. Cumulative concentration-effect curves were then constructed by administering 5-carboxamidotryptamine (5-CT) or other agonists in 0.5 log M increments. Responses are expressed as a percent of control, and represent agonist-evoked increases in the magnitude of the electrically evoked contractions relative to that in the absence of agonist (“control”, taken as 100%). […] Therefore, only a single agonist concentration-effect curve was constructed in each tissue.
Concentration-effect curves were fitted (Kaleidagraph, Synergy Software, PCS Inc., Reading PA) to 1-site or 2-site models of agonism as represented by the following equations:
(1-site): Effect=Emax[A]^n/[A]^n+EC50^n;
(2-site): Effect=(Emax^a[A]/[A]+EC50^a+(Emax^b[A]/[A]+EC50^b),
where Emax represents the maximum effect of the agonist, [A] is the agonist molar concentration, EC50 is the concentration of agonist eliciting half its maximum effect, n is the slope factor, and the italicized superscripts (a and b) denote values for the first and second phase of the biphasic curve. Antagonist pKB values were determined using the formula described by Furchgott (1972): pKB=log (agonist concentration ratio −1/antagonist concentration [M]. In some instances, pKB values were determined according to the method of Arunlakshana and Schild (1959), in which the slope of the Schild plot was constrained to unity. Concentration ratios for Schild analyses were calculated from mean EC50 values for the agonist in the absence and presence of the antagonist in experiments from n different animals.

5-HT1F = molecular target: T5, 5-HT1F (Homo sapiens, UniProt P30939); settings: Adham et al., 1993; cited from earlier work
T5 sequence (P30939 1-366): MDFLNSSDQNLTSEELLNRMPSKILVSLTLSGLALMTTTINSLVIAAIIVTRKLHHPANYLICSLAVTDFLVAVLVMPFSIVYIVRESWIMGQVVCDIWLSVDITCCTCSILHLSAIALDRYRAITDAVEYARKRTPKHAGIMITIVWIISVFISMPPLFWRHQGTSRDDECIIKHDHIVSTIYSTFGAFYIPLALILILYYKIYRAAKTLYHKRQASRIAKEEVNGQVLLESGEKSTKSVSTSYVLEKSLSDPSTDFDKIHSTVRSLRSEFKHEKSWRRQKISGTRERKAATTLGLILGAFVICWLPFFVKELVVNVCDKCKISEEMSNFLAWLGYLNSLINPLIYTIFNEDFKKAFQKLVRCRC

[6] = molecular target: cloned rat 5-HT7 receptor (Rattus norvegicus, UniProt P32305); settings: references 2 and 3; cited from earlier work
5-HT6 = 5-HT6 (Rattus norvegicus, UniProt P31388); settings: Hoyer et al., 1994; cited from earlier work
[7] = bladder pKB versus published value
[8] = bladder pKB versus published values

Sequence of cloned rat 5-HT7 receptor (P32305 whole entry): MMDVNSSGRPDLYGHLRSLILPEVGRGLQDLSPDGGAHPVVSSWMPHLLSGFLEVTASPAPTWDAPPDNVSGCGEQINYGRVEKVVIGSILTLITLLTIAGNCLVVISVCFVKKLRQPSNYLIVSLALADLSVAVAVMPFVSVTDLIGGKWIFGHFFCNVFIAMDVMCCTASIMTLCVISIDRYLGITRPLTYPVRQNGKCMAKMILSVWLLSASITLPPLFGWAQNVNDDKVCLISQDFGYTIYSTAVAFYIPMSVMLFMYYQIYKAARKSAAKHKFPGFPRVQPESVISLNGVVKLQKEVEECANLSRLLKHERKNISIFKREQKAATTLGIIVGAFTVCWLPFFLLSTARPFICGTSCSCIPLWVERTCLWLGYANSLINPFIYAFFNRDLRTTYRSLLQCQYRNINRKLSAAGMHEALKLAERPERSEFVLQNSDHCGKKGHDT
T1 sequence (P32305 whole entry): as above
T3 sequence (P30994 whole entry): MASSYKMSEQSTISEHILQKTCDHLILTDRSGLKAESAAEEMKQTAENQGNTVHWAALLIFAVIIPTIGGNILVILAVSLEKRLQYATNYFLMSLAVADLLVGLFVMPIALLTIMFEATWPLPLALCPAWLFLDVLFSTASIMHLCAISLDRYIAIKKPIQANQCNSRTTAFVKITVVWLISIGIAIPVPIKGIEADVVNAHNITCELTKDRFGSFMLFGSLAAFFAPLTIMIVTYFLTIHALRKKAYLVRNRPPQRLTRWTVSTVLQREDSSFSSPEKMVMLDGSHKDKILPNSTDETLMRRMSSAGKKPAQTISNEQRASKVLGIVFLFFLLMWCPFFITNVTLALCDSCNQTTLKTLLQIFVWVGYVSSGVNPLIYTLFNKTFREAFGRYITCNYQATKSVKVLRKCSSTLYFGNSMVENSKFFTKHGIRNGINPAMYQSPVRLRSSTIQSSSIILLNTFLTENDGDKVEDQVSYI
Sequence of 5-HT1B (P28564 whole entry): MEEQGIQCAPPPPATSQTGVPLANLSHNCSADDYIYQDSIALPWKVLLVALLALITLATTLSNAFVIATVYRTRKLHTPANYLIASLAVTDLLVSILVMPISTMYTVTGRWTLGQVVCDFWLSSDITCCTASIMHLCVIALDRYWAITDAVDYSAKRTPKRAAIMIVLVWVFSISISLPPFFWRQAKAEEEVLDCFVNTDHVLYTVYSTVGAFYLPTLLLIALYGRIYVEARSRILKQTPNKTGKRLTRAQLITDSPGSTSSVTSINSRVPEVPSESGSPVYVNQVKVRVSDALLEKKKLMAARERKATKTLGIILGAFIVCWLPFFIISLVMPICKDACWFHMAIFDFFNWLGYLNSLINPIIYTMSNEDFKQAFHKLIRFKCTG
Sequence of cloned human 5-HT7 receptor (P34969 1-445 isoform P34969-2): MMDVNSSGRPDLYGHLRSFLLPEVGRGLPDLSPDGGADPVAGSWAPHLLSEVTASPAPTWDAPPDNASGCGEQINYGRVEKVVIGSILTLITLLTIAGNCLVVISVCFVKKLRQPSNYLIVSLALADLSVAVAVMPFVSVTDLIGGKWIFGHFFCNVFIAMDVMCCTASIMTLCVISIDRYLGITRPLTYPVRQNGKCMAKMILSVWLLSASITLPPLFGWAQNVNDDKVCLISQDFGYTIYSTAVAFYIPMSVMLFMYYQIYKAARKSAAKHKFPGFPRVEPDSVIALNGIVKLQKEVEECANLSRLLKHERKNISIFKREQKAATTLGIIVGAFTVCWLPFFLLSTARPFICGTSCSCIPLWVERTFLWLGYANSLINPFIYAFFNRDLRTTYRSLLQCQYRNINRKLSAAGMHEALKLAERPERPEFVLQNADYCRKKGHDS
Sequence of 5-HT1E (P28566 whole entry): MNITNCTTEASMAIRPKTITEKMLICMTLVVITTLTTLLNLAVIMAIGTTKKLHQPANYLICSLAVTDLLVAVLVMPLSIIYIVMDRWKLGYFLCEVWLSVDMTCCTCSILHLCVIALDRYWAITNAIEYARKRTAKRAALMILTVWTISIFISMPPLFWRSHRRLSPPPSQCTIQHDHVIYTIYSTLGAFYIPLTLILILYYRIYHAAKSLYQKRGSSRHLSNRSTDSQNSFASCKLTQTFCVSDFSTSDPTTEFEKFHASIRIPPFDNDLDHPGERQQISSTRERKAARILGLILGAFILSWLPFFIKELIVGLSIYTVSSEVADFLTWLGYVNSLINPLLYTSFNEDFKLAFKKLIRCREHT
Sequence of 5-HT2A (P28223 whole entry, species assumed): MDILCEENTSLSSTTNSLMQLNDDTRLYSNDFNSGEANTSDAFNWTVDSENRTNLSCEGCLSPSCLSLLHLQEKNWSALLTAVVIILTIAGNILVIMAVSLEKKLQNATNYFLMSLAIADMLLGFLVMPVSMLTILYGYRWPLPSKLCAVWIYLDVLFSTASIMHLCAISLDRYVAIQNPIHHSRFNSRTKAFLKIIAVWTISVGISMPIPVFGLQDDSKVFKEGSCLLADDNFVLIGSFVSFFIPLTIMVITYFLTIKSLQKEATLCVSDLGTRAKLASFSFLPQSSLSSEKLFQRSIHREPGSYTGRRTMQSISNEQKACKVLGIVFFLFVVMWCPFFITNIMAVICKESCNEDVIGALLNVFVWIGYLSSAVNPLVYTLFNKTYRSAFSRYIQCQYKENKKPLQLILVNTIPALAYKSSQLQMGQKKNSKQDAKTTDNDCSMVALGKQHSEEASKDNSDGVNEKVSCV
Sequence of cloned rat 5-HT2B receptor (P30994 whole entry): as the sequence (P30994 whole entry) above
Sequence of 5-HT6 (P31388 whole entry): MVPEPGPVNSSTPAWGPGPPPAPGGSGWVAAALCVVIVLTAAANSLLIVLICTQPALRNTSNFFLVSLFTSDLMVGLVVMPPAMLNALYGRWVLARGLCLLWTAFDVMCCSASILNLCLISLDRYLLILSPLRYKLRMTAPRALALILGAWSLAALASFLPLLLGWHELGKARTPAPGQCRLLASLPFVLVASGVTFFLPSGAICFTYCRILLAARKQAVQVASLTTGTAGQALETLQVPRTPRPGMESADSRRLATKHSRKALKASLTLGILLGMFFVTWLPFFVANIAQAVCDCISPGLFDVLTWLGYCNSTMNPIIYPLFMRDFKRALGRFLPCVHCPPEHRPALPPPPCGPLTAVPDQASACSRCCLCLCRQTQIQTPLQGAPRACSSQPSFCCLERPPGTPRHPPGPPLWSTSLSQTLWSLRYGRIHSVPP

## O=C(CCCN1CCC2(CC1)C(=O)NCN2c1ccccc1)c1ccc(F)cc1 [spiperone]
[1]; [7]
  first-phase affinity greater than that for the 5-HT2C receptor subtype: ~30 fold
  first-phase affinity lower than that for the 5-HT2A receptor subtype: ~30 fold
[1]; [8]
  first-phase affinity greater than that for 5-HT1B, 5-HT1D, 5-HT5A and 5-HT2B receptor subtype: at least 100 fold
5-HT1B
  pKB, 5-HT1B: 4.4
5-HT1D
  pKB, 5-HT1D: 4.8
5-HT2C
  pKB, 5-HT2C: 5.9
5-HT5A
  pKB, 5-HT5A: 5.6

## c1ccc2c(N3CCNCC3)cccc2c1 [1-NP, 1-(1-naphthyl)piperazine]
[2]
  Kb: 0.00316 µM
[2]; 0.1 μM
  shift of the low potency (second) phase of the concentration-effect curve: 100 fold
[2]; [8]
  second-phase affinity greater than affinity for 5-HT1A, 5-HT1B, 5-HT1E, 5-HT2A and 5-HT7 subtypes: at least 10 fold
[2]; second phase, 0.01 to 1.0 μM
  slope of Schild analysis: unit slope
[1]; 0.1 μM
  effect on the high potency (first) phase of the curve: no effect
[1]; 1.0 μM
  rightward shift of the first phase of the response to 5-CT: 6.8 ±0.54 fold
[1]; pKB, inhibition of the first phase of the concentration-effect curve to 5-CT in the rat bladder, antagonists tested in the presence of 0.1 μM 1-NP
  Kb: 0.158 µM and 0.251 µM
[3]; Wainscott et al., 1993
  pKB, 5-HT2B: 8.3
[3]; cloned rat 5-HT2B receptor, reference 1 (Wainscott et al., 1993)
  pK1: 8.3-8.7
[4]; Bard et al., 1993
  pKB, 5-HT7: 7.1
[4]
  pK1: 7.1
5-HT1A
  pKB, 5-HT1A: 7.2
5-HT1B
  pKB, 5-HT1B: 6.6
5-HT1E
  pKB, 5-HT1E: 6.7
5-HT2C
  pKB, 5-HT2C: 8.2
5-HT2A
  pKB, 5-HT2A: 7.2

## CCCN(CCC)CCc1c[nH]c2ccc(C(N)=O)cc12 [DP-5-CT]
[5]
  effect on the magnitude of electrically evoked contractions: mimicked

## CSc1ccc2c(c1)C(N1CCN(C)CC1)Cc1ccccc1S2 (stereo not shown) [methiothepin]
5-HT1B
  pKB, 5-HT1B: 7.3
5-HT1D
  pKB, 5-HT1D: 7.3
5-HT1E
  pKB, 5-HT1E: 6.7
5-HT1F
  pKB, 5-HT1F: 6.2
5-HT5A
  pKB, 5-HT5A: 7.0

## NCCc1c[nH]c2ccc(O)cc12 [5-HT, 5-hydroxytryptamine]
[5]
  effect on the magnitude of electrically evoked contractions: marked increases

## CN1[C@@H]2CC[C@H]1C[C@@H](OC(=O)c1c[nH]c3ccccc13)C2 [tropisetron]
[2]
  effect on low potency responses to 5-CT: not affected
[1]
  effect on high potency responses to 5-CT: not affected
[6]
  pK1: <4.5

## CC(C)NCC(O)COc1cccc2[nH]ccc12 (single isomer, unassigned) [pindolol]
[2]
  effect on low potency responses to 5-CT: not affected
[1]
  effect on high potency responses to 5-CT: not affected
[6]
  pK1: <6

## COc1ccc2[nH]cc(CCN)c2c1 [5-MeOT]
[5]
  effect on the magnitude of electrically evoked contractions: mimicked

## O=C(c1ccc(F)cc1)C1CCN(CCn2c(=O)[nH]c3ccccc3c2=O)CC1 [ketanserin]
[2]
  effect on low potency responses to 5-CT: not affected
[1]
  effect on high potency responses to 5-CT: not affected
[6]
  pK1: 5.6

## CN1C[C@@H](NS(=O)(=O)N(C)C)C[C@@H]2c3cccc4c3c(cn4C)C[C@H]21 [mesulergine]
5-HT1A
  pKB, 5-HT1A: 6.2
5-HT1B
  pKB, 5-HT1B: 4.9
5-HT1F
  pKB, 5-HT1F: < 5
5-HT6
  pKB, 5-HT6: 5.8
5-HT2A
  pKB, 5-HT2A: 9.1

## CCCN(CCC)C1CCc2cccc(O)c2C1 (stereo not shown) [8-OH-DPAT]
[5]
  ability to modify the effects of 5-HT: failure
  effect on the magnitude of electrically evoked contractions: inactive

## CC(N)Cc1c[nH]c2ccc(O)cc12 (stereo not drawn) [α-Me-5-HT, α-methyl-5-hydroxytryptamine]
[5]
  effect on the magnitude of electrically evoked contractions: mimicked

## CC(C)n1cc2c3c(cccc31)C1C[C@@H](C(=O)N[C@H]3CCC[C@H]3O)CN(C)[C@@H]1C2 (stereo partly shown) [LY215840]
[1]; inhibition of the first phase of the concentration-effect curve to 5-CT in the rat bladder, antagonists tested in the presence of 0.1 μM 1-NP
  pKB: 8.2
[4]
  pK1: 7.8

## CC(C)n1c(=O)n(C(=O)NC2CC3CCC(C2)N3C)c2ccccc21 (stereo not shown) [BIMU-8]
[5]
  ability to modify the effects of 5-HT: failure
  effect on the magnitude of electrically evoked contractions: inactive
